Assay: Tested for experimental arotinoid inhibitory dose

Row | SMILES | -Log ID50
1 | C/C(=C\c1ccc2c(c1)C(C)(C)CCC2(C)C)c1ccc(C(=O)O)cc1 | 10.52
2 | C/C(=C(/F)c1ccc(C(=O)O)cc1)c1cc2c(s1)CCCC2(C)C | 9.22
3 | C/C(=C(/F)c1ccc(C(=O)O)cc1)c1ccc2c(c1)C(C)(C)CCC2(C)C | 10.1
4 | C/C(=C\c1ccc(C(=O)O)cc1)c1ccc2c(c1)C(C)(C)CC[C@H]2C | 10.22
5 | CC1(C)CCC(C)(C)c2cc3cc(-c4ccc(C(=O)O)cc4)ccc3cc21 | 10.15
6 | C/C(=C\c1ccc(C(=O)O)cc1)c1ccc2c(c1)C1CCC2C1 (stereo not given) | 8.51
7 | C/C(=C\c1ccc2c(c1)C(C)(C)CCS2)c1ccc(C(=O)O)cc1 | 9.22
8 | C/C(=C\c1ccc(C(=O)O)cc1)c1ccc2c(c1)C(C)(C)CCC2C (stereo not given) | 10.15
9 | COc1ccc(/C(C)=C/c2ccc(C(=O)O)cc2)cc1C(C)(C)C | 9.4
10 | C/C(=C\c1ccc(C(=O)O)cc1)c1ccc(SCCC(C)C)cc1 | 6.77
11 | C/C(=C\c1ccc(C(=O)O)cc1)c1ccc2c(C)c(C)c(C)c(C)c2c1 | 8.8
12 | C/C(=C\c1ccc(C(=O)O)cc1)c1ccc2ccc(C)c(C)c2c1 | 6.7
13 | C/C(=C\c1ccc(C(=O)O)cc1)c1cc2c(s1)CCCC2(C)C | 10

Further lines, results first:

Row | -Log ID50 | SMILES
14 | 8.57 | C/C(=C\c1ccc(C(=O)O)cc1)c1ccc2c(c1)C(C)(C)CCO2
15 | 10.52 | C/C(=C\c1ccc(C(=O)O)cc1)c1ccc2c(c1)C(C)(C)CCC2(C)C
16 | 9.22 | C/C(=C\c1ccc(C(=O)O)cc1)c1ccc2c(c1)CCCC2(C)C
17 | 9.3 | C/C(=C\c1ccc(C(=O)O)cc1)c1ccc2c(c1)C(C)(C)CCS2
18 | 9.22 | C/C(=C\c1ccc(C(=O)O)cc1)c1ccc2c(c1)SCCC2(C)C
19 | 10.3 | C/C(=C\c1ccc(C(=O)O)cc1)c1ccc2c(c1)C(C)(C)CC[C@@H]2C
20 | 8.96 | C/C(=C\c1ccc(C(=O)O)cc1)c1ccc2c(c1)C(C)(C)CCC2

Source: ChEMBL document CHEMBL1127587, “Modeling the anticarcinogenic action of retinoids by making use of the OASIS method. 3. Inhibition of the induction of ornithine decarboxylase by arotinoids” (J Med Chem, 1994)
